PubChem BioAssay (NCI)
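GI50 = concentration required for 50% inhibition of growth. TGI: concentration producing complete growth inhibition.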

What was measured:
Assay in all cases: NCI tumour cell line growth inhibition, 384-well format
[1] = tested on: HS 578T breast
[2] = tested on: MDA-MB-468 breast
[3] = tested on: EKVX NSCLC
[4] = tested on: SNB-75 CNS
[5] = tested on: SF-268 CNS
[6] = tested on: NCI-H23 lung
[7] = tested on: SW-620 colon
[8] = tested on: NCI-H226 lung
[9] = tested on: RPMI-8226 leukemia
[10] = tested on: HL-60(TB) leukemia
[11] = tested on: HOP-92 NSCLC
[12] = tested on: DU-145 prostate
[13] = tested on: COLO 205 colon
[14] = tested on: 786-0 renal
[15] = tested on: RXF 393 renal
[16] = tested on: UACC-62 melanoma
[17] = tested on: IGROV1 ovarian
[18] = tested on: SF-295 CNS
[19] = tested on: HOP-62 NSCLC
[20] = tested on: NCI/ADR-RES ovarian
[21] = tested on: LOX IMVI melanoma
[22] = tested on: SNB-19 CNS
[23] = tested on: HCC-2998 colon
[24] = tested on: MDA-MB-231 breast
[25] = tested on: NCI-H322M lung
[26] = tested on: OVCAR-5 ovarian
[27] = tested on: UACC-257 melanoma
[28] = tested on: TK-10 renal
[29] = tested on: HT29 colon
[30] = tested on: MALME-3M melanoma
[31] = tested on: SK-MEL-28 melanoma
[32] = tested on: BT-549 breast
[33] = tested on: SF-539 CNS
[34] = tested on: MCF7 breast
[35] = tested on: HCT-15 colon
[36] = tested on: SR leukemia
[37] = tested on: UO-31 renal
[38] = tested on: A498 renal
[39] = tested on: SK-MEL-5 melanoma
[40] = tested on: MDA-MB-435 melanoma
[41] = tested on: KM12 colon
[42] = tested on: ACHN renal
[43] = tested on: OVCAR-8 ovarian
[44] = tested on: T-47D breast
[45] = tested on: PC-3 prostate
[46] = tested on: NCI-H522 lung
[47] = tested on: CAKI-1 renal
[48] = tested on: SK-OV-3 ovarian
[49] = tested on: K-562 leukemia
[50] = tested on: OVCAR-3 ovarian
[51] = tested on: A549 NSCLC
[52] = tested on: NCI-H460 NSCLC
[53] = tested on: CCRF-CEM leukemia
[54] = tested on: OVCAR-4 ovarian
[55] = tested on: M14 melanoma
[56] = tested on: SN12C renal
[57] = tested on: MOLT-4 leukemia

Work on `Cc1cccc(N(C)C(=O)[C@@H]2[C@H](O)CCN2c2nc(C)cc(C(F)(F)F)c2C#N)c1` yielded a GI50 [1] of 21 µM, a TGI [1] of 52.3 µM and a GI50 [2] of 20 µM. It also gave a TGI [2] of 38.5 µM, a GI50 [3] of 24.4 µM and a TGI [3] of 58.1 µM. The GI50 [4] was 28.4 µM, the TGI [4] was 91.2 µM and the GI50 [5] was 38.9 µM. The TGI [5] was over 100 µM, the GI50 [6] was 34.4 µM and the TGI [6] was over 100 µM. For the same compound, the GI50 [7] was 53.3 µM, the TGI [7] was over 100 µM and the GI50 [8] was 21 µM. It also gave a TGI [8] of 64.8 µM, a GI50 [9] of 13.6 µM and a TGI [9] of 26.7 µM. For the same compound, the GI50 [10] was 19.4 µM, the TGI [10] was 33.8 µM and the GI50 [11] was 22.9 µM. It also gave a TGI [11] of 61 µM, a GI50 [12] of 31.3 µM and a TGI [12] of 90.7 µM. The GI50 [13] was 37.9 µM, the TGI [13] was over 100 µM and the GI50 [14] was 33.3 µM. The TGI [14] was over 100 µM, the GI50 [15] was 21.5 µM and the TGI [15] was 58.6 µM. For the same compound, the GI50 [16] was 38.1 µM, the TGI [16] was over 100 µM and the GI50 [17] was 28 µM. The TGI [17] was 71.7 µM, the GI50 [18] was 21.4 µM and the TGI [18] was 52 µM. It also gave a GI50 [19] of 27.2 µM, a TGI [19] of 91.7 µM and a GI50 [20] of 23.5 µM. It also gave a TGI [20] of 63.8 µM, a GI50 [21] of 30.7 µM and a TGI [21] of 80.8 µM. For the same compound, the GI50 [22] was 37.6 µM, the TGI [22] was over 100 µM and the GI50 [23] was 24.8 µM. The TGI [23] was 54.4 µM, the GI50 [24] was 47.9 µM and the TGI [24] was over 100 µM. It also gave a GI50 [25] of 36.4 µM, a TGI [25] of over 100 µM and a GI50 [26] of 35.2 µM. The TGI [26] was over 100 µM, the GI50 [27] was 35.3 µM and the TGI [27] was 76.6 µM. The GI50 [28] was 51.4 µM, the TGI [28] was over 100 µM and the GI50 [29] was 32.7 µM. For the same compound, the TGI [29] was over 100 µM, the GI50 [30] was 22 µM and the TGI [30] was 66.7 µM. The GI50 [31] was 43.3 µM, the TGI [31] was over 100 µM and the GI50 [32] was 29.4 µM. For the same compound, the TGI [32] was 65.4 µM, the GI50 [33] was 37.2 µM and the TGI [33] was over 100 µM. It also gave a GI50 [34] of 27.9 µM, a TGI [34] of 71.6 µM and a GI50 [35] of 32 µM. For the same compound, the TGI [35] was over 100 µM, the GI50 [36] was 15.9 µM and the TGI [36] was 30 µM. For the same compound, the GI50 [37] was 32.5 µM, the TGI [37] was over 100 µM and the GI50 [38] was 28.3 µM. For the same compound, the TGI [38] was 96.1 µM, the GI50 [39] was 20.7 µM and the TGI [39] was 37.3 µM. For the same compound, the GI50 [40] was 37.5 µM, the TGI [40] was over 100 µM and the GI50 [41] was 33.3 µM. It also gave a TGI [41] of over 100 µM, a GI50 [42] of 31 µM and a TGI [42] of over 100 µM. For the same compound, the GI50 [43] was 32.9 µM, the TGI [43] was over 100 µM and the GI50 [44] was 37 µM. For the same compound, the TGI [44] was over 100 µM, the GI50 [45] was 24.5 µM and the TGI [45] was 65.3 µM. It also gave a GI50 [46] of 28.1 µM, a TGI [46] of 70 µM and a GI50 [47] of 36.1 µM. The TGI [47] was over 100 µM, the GI50 [48] was 35 µM and the TGI [48] was 96.4 µM. The GI50 [49] was 33.1 µM, the TGI [49] was over 100 µM and the GI50 [50] was 20.1 µM. It also gave a TGI [50] of 43.5 µM, a GI50 [51] of 26.9 µM and a TGI [51] of over 100 µM. For the same compound, the GI50 [52] was 30.2 µM, the TGI [52] was 87 µM and the GI50 [53] was 19.4 µM. It also gave a TGI [53] of 36 µM, a GI50 [54] of 30.4 µM and a TGI [54] of 73 µM. For the same compound, the GI50 [55] was 43.7 µM, the TGI [55] was over 100 µM and the GI50 [56] was 30.6 µM. It also gave a TGI [56] of over 100 µM, a GI50 [57] of 14.8 µM and a TGI [57] of 28.2 µM.
